Where two headings read alike, the source gives them in different places.
Tests used:
HepG2 = experiment: Modified MTT cytotoxicity assay, HepG2; type: cell-based, Human; details: for IC50: MTT, 24 h incubation, three replicates, read-out: Cytotoxicity IC50 HepG2; for SI (selectivity index) HepG2: quotient of IC50 for normal (LO2) and malignant (HepG2) cells
Experimental: (§1) The HepG2, SMMC-7721, and LO2 cell lines were maintained at 37 °C, 5% humidified CO2, and 95% atmosphere. Dulbecco's Modified Eagle (DMEM) medium containing 10% foetal bovine serum (FBS) was used for culturing the HepG2 cell line; meanwhile, Roswell Park Memorial Institute (RPMI) 1640 medium containing 10% FBS was used for culturing other cell lines (SMMC-7721, LO2). The HepG2, SMMC-7721 and LO2 cells were seeded in a 96-well plate in 200 μL of medium per well at a density of approximately 8 × 10^3 cells/well and cultured for 24 h, followed by incubation in an incubator of indicated compounds with successive concentrations (10, 5, 2.5, 1.25, 0.625, 0.3125 μg/mL) for 24 h. In the control group, cells were only cultured with culture media. After the media were removed, 20 μL of MTT (5 mg/mL) was added, then cells were incubated for 4 h at 37 °C. […] GraphPad Prism 5 software was used to calculate their IC50 values. Every IC50 value was the average of three replicates. Doxorubicin (DOX) and curcumin were used as positive controls.

SMMC-7721 = experiment: Modified MTT cytotoxicity assay, SMMC-7721; type: cell-based, Human; details: for IC50: MTT, 24 h incubation, three replicates; for SI (selectivity index) SMMC-7721: quotient of IC50 for normal (LO2) and malignant (SMMC-7721) cells
Experimental: as §1

LO2 = experiment: Modified MTT cytotoxicity assay, normal heptical cell line LO2; type: cell-based, human; details: 24 h incubation
Experimental: as §1

RAW264.7 cell = experiment: MTT toxicity pre-experiment on RAW264.7 macrophagocyte; type: cell-based, mouse; details: for Survival rate RAW264.7 cell: BAPs 5 μM
Experimental: Lipopolysaccharide (LPS) is a key constituent of Gram-negative bacterial endotoxin, which is used to induce an inflammatory response in corresponding inflammatory cells. TNF-α and IL-6 are two kinds of representative pro-inflammatory factors, which produced by LPS-stimulated RAW264.7 macrophage. In our pre-experiments, the toxicity against RAW264.7 macrophagocyte for all title compounds was tested by the MTT assay, and the results were listed in Table 2. The survival rates were above 80% for all BAPs (4-30) at the concentration of 5.0 μM.

TNF-α = experiment: ELISA of TNF-α release in LPS-stimulated RAW264.7 cells; type: cell-based, mouse; details: RAW264.7, ELISA; for Inhibition rate TNF-α: BAPs (5 μM) + LPS (1 μg/mL)
Experimental: (§2) We tested by inhibiting the secretion of TNF-α and IL-6 to better evaluated the anti-inflammatory effects of BAPs. […] Under the stimulation of LPS (1.0 μg/mL) with RAW264.7 cells, the release of TNF-α and IL-6 was detected. Besides, after treated with BAPs (5.0 μM) and LPS (1.0 μg/mL), the release of TNF-α and IL-6 was measured with an ELISA kit (eBioScience, San Diego, California), respectively. In general terms, pyrrolidine dithiocarbamate (PDTC, 30 μM) or BAP (5.0 μM) was used to pretreat cells for 2 h, respectively. Then, LPS (1.0 μg/mL) was added and cells were incubated for another 22 h. Finally, the culture media were centrifuged at 1000 rpm for 10 min, and the expression levels of TNF-α and IL-6 were determined by ELISA.

IL-6 = experiment: ELISA of IL-6 release in LPS-stimulated RAW264.7 cells; type: cell-based, mouse; details: RAW264.7, ELISA; for Inhibition rate IL-6: BAPs (5 μM) + LPS (1 μg/mL)
Experimental: as §2

A549 = experiment: Modified MTT cytotoxicity assay, A549; details: for SI (selectivity index) A549: quotient of IC50 for normal (HHL-5) and malignant (A549) cells
Experimental: (§3) To further verify the anti-tumour activity, one human non-small cell lung cancer cell line (A549), one human ovarian cancer cell line (A2780), and one human normal heptical cell line (HHL-5) were screened by BAPs (4–30) using a modified MTT assay (Supporting Information). DOX and curcumin were selected as positive controls.
(§4) The optical density (OD) value of each well was measured on a
(§5) multi-well plate reader (TECAN, Mӓnnedorf, Switzerland ) at 570 nm.
(§6) Every IC 50 value was the average of three replicates.
(§7) Doxorubicin (DOX) and Curcumin were used as positive controls.

A2780 = experiment: Modified MTT cytotoxicity assay, A2780; details: for SI (selectivity index) A2780: quotient of IC50 for normal (HHL-5) and malignant (A2780) cells
HHL-5 = experiment: Modified MTT cytotoxicity assay, normal heptical cell line HHL-5; details: read-out: Cytotoxicity IC50 HHL-5; MTT, normal heptical cell line
Experimental: as §3, §4, §5, §6, §7

[1] = Modified MTT cytotoxicity assay, normal heptical cell line LO2; type: cell-based, human; details: human, LO2 cells (normal hepatic cell line), 24 h incubation
Experimental: as §1

[2] = Modified MTT cytotoxicity assay, normal heptical cell line HHL-5; details: human, HHL-5 cells (normal hepatic cell line)
Experimental: as §3, §4, §5, §6, §7

[3] = read-out: Cytotoxicity IC50 A549, MTT, non-small cell lung cancer cell line
[4] = read-out: Cytotoxicity IC50 A2780, MTT, ovarian cancer cell line

| Compound | IC50 (HepG2) [µM] | SI (selectivity index) HepG2 (HepG2) | IC50 (SMMC-7721) [µM] | SI (selectivity index) SMMC-7721 (SMMC-7721) | IC50 (LO2) [µM] | Survival rate RAW264.7 cell (RAW264.7 cell) [%] | Inhibition rate TNF-α (TNF-α) [%] | Inhibition rate IL-6 (IL-6) [%] | SI (selectivity index) A549 (A549) | IC50 (A549; [3]) [µM] | SI (selectivity index) A2780 (A2780) | IC50 (A2780; [4]) [µM] | IC50 (HHL-5) [µM] | other results |
| --- | --- | --- | --- | --- | --- | --- | --- | --- | --- | --- | --- | --- | --- | --- |
| O=C1/C(=C/c2ccccc2C(F)(F)F)CN(S(=O)(=O)c2ccccc2)C/C1=C\c1ccccc1C(F)(F)F [BAP 4] | ~9.2 | 1.8 | ~8.2 | 2.0 | 16.4 ± 0.2 | 82.2 ± 2.0 | 62.1 ± 4.7 | 70.7 ± 1.3 | 3.8 | 2.24 ± 1.23 | 0.2 | 54 ± 12 | – | IC50 (HepG2; listed as 4): 9.2 ± 0.2 µM; IC50 (SMMC-7721; listed as 4): 8.2 ± 0.6 µM |
| O=C1/C(=C/c2ccccc2C(F)(F)F)CN(S(=O)(=O)c2ccc(C(F)(F)F)cc2)C/C1=C\c1ccccc1C(F)(F)F [BAP 7] | ~2.1 | 8.2 | ~2.6 | 6.6 | 17.2 ± 0.2 | 87.3 ± 1.9 | – | – | 3.4 | 2.68 ± 0.53 | 27.6 | 0.33 ± 0.03 | 9.1 ± 0.2 | IC50 (HepG2; listed as 7): 2.1 ± 0.1 µM; IC50 (SMMC-7721; listed as 7): 2.6 ± 0.2 µM; Inhibition rate TNF-α (TNF-α; 5 µM): ca. 69.9%; Inhibition rate TNF-α (TNF-α; listed as 7, 5 µM): 69.9 ± 1.1%; Inhibition rate IL-6 (IL-6; 5 µM): ca. 71.2%; Inhibition rate IL-6 (IL-6; listed as 7, 5 µM): 71.2 ± 1.3% |
| CC(=O)Nc1ccc(S(=O)(=O)N2C/C(=C\c3ccccc3C(F)(F)F)C(=O)/C(=C/c3ccccc3C(F)(F)F)C2)cc1 [BAP 12] | 12.9 ± 0.1 | 1.2 | 10.9 ± 0.4 | 1.4 | 15.6 ± 1.3 | 86.4 ± 0.7 | 67.2 ± 2.4 | 62.8 ± 3.0 | 3.3 | 2.39 ± 0.09 | 6.5 | 1.22 ± 0.06 | 7.9 ± 0.2 | – |
| CC(=O)Nc1ccc(S(=O)(=O)N2C/C(=C\c3cccc(C(F)(F)F)c3)C(=O)/C(=C/c3cccc(C(F)(F)F)c3)C2)cc1 [BAP 21] | 1.3 ± 0.1 | 11.1 | 5.1 ± 0.1 | 2.8 | 14.4 ± 0.1 | 90.2 ± 3.6 | 78.5 ± 4.2 | 71.6 ± 5.3 | 14.3 | 0.21 ± 0.01 | 17.6 | 0.17 ± 0.01 | 3 ± 0.6 | – |
| O=C1/C(=C/c2ccc(C(F)(F)F)cc2)CN(S(=O)(=O)c2ccccc2)C/C1=C\c1ccc(C(F)(F)F)cc1 [BAP 22] | – | – | – | – | – | – | – | – | – | – | – | – | – | IC50 (HepG2; Homo sapiens, HepG2, 24 h): ~1.8 µM; IC50 (SMMC-7721; Homo sapiens, SMMC-7721, 24 h): ~8.5 µM; IC50 at 24 h [1]: 18.2 ± 0.2 µM; viability at 5 µM (RAW264.7 cell; Mus musculus, RAW264.7, BAPs 5 μM, read-out: Survival rate RAW264.7 cell): 89.4 ± 7.8%; inhibition at 5 µM (TNF-α; Mus musculus, RAW264.7, BAPs (5 μM) + LPS (1 μg/mL), read-out: Inhibition rate TNF-α): 65.2 ± 1.3%; inhibition at 5 µM (IL-6; Mus musculus, RAW264.7, BAPs (5 μM) + LPS (1 μg/mL), read-out: Inhibition rate IL-6): 68.3 ± 1.3%; IC50 (A549; Homo sapiens, A549, read-out: Cytotoxicity IC50 A549, MTT, non-small cell lung cancer cell line): 0.18 ± 0.02 µM; IC50 (A2780; Homo sapiens, A2780, read-out: Cytotoxicity IC50 A2780, MTT, ovarian cancer cell line): 0.17 ± 0.06 µM; IC50 [2]: 7.9 ± 0.1 µM |
